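The compound was tested at five concentrations on cells cultured in 96-well plates, with a 48-hour exposure period. The concentration for 50% growth inhibition is given as GI50. At the TGI there is no net growth.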

Among the test systems are COLO 205 colon; HCC-2998 colon; HCT-116 colon; HL-60(TB) leukemia; HS 578T breast; IGROV1 ovarian; MALME-3M melanoma; MDA-MB-231 breast; OVCAR-8 ovarian; SK-MEL-2 melanoma.
What all share (test): DTP human tumour cell line panel, 48 h

A word on the GI50: it is the concentration at which growth is held to half of that of the control. The TGI is the concentration at which net growth stops. A high value points to lower sensitivity of the cells. As to `CC(CN=C(CC(=O)c1ccc(Br)cc1)c1ccccc1)N=C(CC(=O)c1ccc(Br)cc1)c1ccccc1` (stereo not given), the GI50 was 7.58 µM with COLO 205 colon; 99.1 µM in the experiment with HCC-2998 colon; 2.75 µM in the experiment on HCT-116 colon; 17.2 µM in the experiment on HL-60(TB) leukemia; over 100 µM with HS 578T breast; 3.37 µM with IGROV1 ovarian. Moreover, the GI50 in the experiment on MALME-3M melanoma was 23.3 µM; in the experiment with MDA-MB-231 breast, over 100 µM; with OVCAR-8 ovarian, 34.6 µM; in the experiment on SK-MEL-2 melanoma it was 3.48 µM. In addition, the TGI in the experiment on COLO 205 colon is over 100 µM; in the experiment with HCC-2998 colon, over 100 µM; with HCT-116 colon, over 100 µM; in the experiment on HL-60(TB) leukemia it was 68 µM; with HS 578T breast it was over 100 µM; with IGROV1 ovarian, over 100 µM. Also, the TGI with MALME-3M melanoma, in the experiment with MDA-MB-231 breast, in the experiment on OVCAR-8 ovarian and with SK-MEL-2 melanoma was over 100 µM each time.

Values taken from PubChem BioAssay (NCI).
